In US12714706B2, “Methods of treating small cell lung cancer with lurbinectedin formulations” (PHARMA MAR, S.A., priority 2019, dated 2026):
In brackets after ≈: the same amount, converted by molar mass. Several values for one entry are separate records, joined by “and”; a condition that tells them apart may be missing. Equal entries are not always repeated.

How the values were obtained:
[1] = Maximum solubility of lurbinectedin in different molarities of lactic acid; format: physicochemical; details: lactic acid solution, aqueous buffer
Experimental: As such, in embodiments, a concentrated lurbinectedin solution is prepared in organic acid before addition of other excipients. In preferred embodiments, the organic acid has a pH less than 4, preferably less than 3.5, more preferably less than 3, or around 3. The maximum solubility of lurbinectedin was investigated in different molarities of the organic acid lactic acid. […] In a preferred embodiment, lurbinectedin is dissolved in an organic acid with a molarity of around 0.1M to 0.5M, preferably around 0.2M to 0.4M, more preferably around 0.3M organic acid. An exemplary molarity is 0.31M organic acid.

[2] = system: advanced solid tumors; test: Phase 1 dose escalation of lurbinectedin plus irinotecan: MTD, RD and dose limiting toxicities; format: in vivo, human
Experimental: A clinical study of lurbinectedin in combination with irinotecan for patients afflicted with solid tumors was carried out. […] Patients were enrolled following a standard 3+3 dose escalation design. Phase Ib/II expansion part at the recommended dose (RD) was performed to explore efficacy in indications where antitumor activity signal was observed.
Three weeks was defined as one treatment cycle.
Primary outcome measures were (1) maximum tolerated dose (MTD) and (2) recommended dose (RD). MTD was defined as lowest dose explored during dose escalation which one third or more of evaluable patients develop DLT in Cycle 1. RD was defined as highest dose level explored during dose escalation in which fewer than one third of evaluable patients develop DLT during Cycle 1.

[3] = lurbinectedin single agent 3.2 mg/m2 (ref); n=329; mean (SD); cited from earlier work
[4] = system: advanced solid tumors; test: Lurbinectedin plus irinotecan trial: efficacy per tumor type (RECIST v1.1, PFS, OS); format: in vivo, human; details: all doses
Source text: Secondary outcome measures included safety evaluation, peak plasma concentration (Cmax), area-under-the plasma concentration versus time curve (AUC), volume of distribution based on the terminal half-life (Vz), volume of distribution at steady state (Vss), clearance (CL), half-life (t½), evaluation of antitumor response (RECIST v1.1, start of treatment until PD, other antitumor therapy, death or until 12 months after the inclusion of the last evaluable patient in the study (end of study), whichever occurs first), progression-free survival (from the date of first infusion of study treatment to the date of progression or death or until 12 months after end of study, whichever occurs first), and overall survival (from the date of first infusion to study treatment to the date or death or until 12 months after end of study, whichever occurs first).
Encouraging activity has been observed in patients with SOLO, including some cases as third line treatment. Signals of activity were also observed in endometrial carcinoma and soft tissue sarcoma (STS) and glioblastoma (GBM). Consequently, a Phase II expansion at the RD to further explore efficacy and safety in SOLO, GBM, STS, and endometrial carcinoma. A total of […] patients were treated at the RD, including n=15 SOLO, n=11 endometrial cancer, n=10 STS, and n=20 GBM patients.

[5] = system: SCLC; test: Post-hoc exploratory analysis of response in SCLC patients who had previously received immunotherapy; format: in vivo, human; details: for Lurbinectedin treatment: OS / Lurbinectedin treatment: DoR / Lurbinectedin treatment: PFS: individual SCLC patients with prior immunotherapy
Source text: Post-hoc exploratory analysis was done on the response in patients who had previously received immunotherapy (n=8).

[6] = lurbinectedin D1 q3w with irinotecan 75 mg/m2 D1 & D8 q3w
[7] = resistant disease, listed as Lurbinectedin

In the case of COc1ccc2[nH]c3c(c2c1)CCN[C@]31CS[C@@H]2c3c(OC(C)=O)c(C)c4c(c3[C@H](COC1=O)N1[C@@H]2[C@H]2c3c(cc(C)c(OC)c3O)C[C@@H]([C@@H]1O)N2C)OCO4 [lurbinectedin, Lurbinectedin], the solubility ([1]; 0.05M lactic acid) is reported as 7.2 mg/mL (≈ 9.17 mM), the solubility ([1]; 0.5M lactic acid) is reported as 90.4 mg/mL (≈ 115 mM) and the DLTs/Evaluable patients ([2]; Dose Level 1: lurbinectedin 1.0 mg/m2 D1 + irinotecan 75 mg/m2 D1 & D8, q3w) is reported as 1/6. For the same molecule, the DLTs/Evaluable patients ([2]; Dose Level 2: lurbinectedin 1.5 mg/m2 D1 + irinotecan 75 mg/m2 D1 & D8, q3w) was 1/4, the DLTs/Evaluable patients ([2]; Dose Level 3 (without G-CSF): lurbinectedin 2.0 mg/m2 D1 + irinotecan 75 mg/m2 D1 & D8, q3w) was 4/11 and the DLTs/Evaluable patients ([2]; Dose Level 3* (with G-CSF): lurbinectedin 2.0 mg/m2 D1 + irinotecan 75 mg/m2 D1 & D8, q3w) was 3/12. For the same molecule, the DLTs/Evaluable patients ([2]; Dose Level 4* (with G-CSF): lurbinectedin 2.4 mg/m2 D1 + irinotecan 75 mg/m2 D1 & D8, q3w) was 2/3, the “MTD with G-CSF (lurbinectedin dose)” value [2, 6] was 2.4 mg/m2 and the “MTD without G-CSF (lurbinectedin dose)” value [2, 6] was 2.0 mg/m2. The “RD with G-CSF (lurbinectedin dose)” value [2, 6] was 2.0 mg/m2, the CL [3] was 12.4 (7.6) L/h and the Cmax [3] was 127.5 (100.2) ug/L. For the same molecule, the HL [3] was 42.6 (38.4) h, the Vz [3] was 664.7 (460.3) L and the “CBR (ORR + SD >4 mo)” value ([4]; Endometrial (n = 10 evaluable)) was 60%. For the same molecule, the “DCR (ORR + SD)” value ([4]; Endometrial (n = 10 evaluable)) was 100%, the “Median DoR” value ([4]; Endometrial (n = 10 evaluable)) was 4.6 mo and the “Median PFS” value ([4]; Endometrial (n = 10 evaluable)) was 7.1 mo. The “ORR* (PR)” value ([4]; Endometrial (n = 10 evaluable)) was 3 (30) n(%), the “PFS rate at 6 mo” value ([4]; Endometrial (n = 10 evaluable)) was 50% and the “CBR (ORR + SD >4 mo)” value ([4]; GBM (n = 16 evaluable)) was 18.8%. For the same molecule, the “DCR (ORR + SD)” value ([4]; GBM (n = 16 evaluable)) was 43.8%, the “Median PFS” value ([4]; GBM (n = 16 evaluable)) was 1.4 mo and the “ORR* (PR)” value ([4]; GBM (n = 16 evaluable)) was 1 (6.3) n(%). For the same molecule, the “PFS rate at 6 mo” value ([4]; GBM (n = 16 evaluable)) was 7.1%, the “CBR (ORR + SD >4 mo)” value ([4]; SCLC (n = 13 evaluable)) was 76.9% and the “DCR (ORR + SD)” value ([4]; SCLC (n = 13 evaluable)) was 84.6%. For the same molecule, the “Median DoR” value ([4]; SCLC (n = 13 evaluable)) was 4.6 mo, the “Median PFS” value ([4]; SCLC (n = 13 evaluable)) was 4.3 mo and the “ORR* (PR)” value ([4]; SCLC (n = 13 evaluable)) was 9 (69.2) n(%). The “PFS rate at 6 mo” value ([4]; SCLC (n = 13 evaluable)) was 36.3%, the “CBR (ORR + SD >4 mo)” value ([4]; STS (n = 10 evaluable)) was 40% and the “DCR (ORR + SD)” value ([4]; STS (n = 10 evaluable)) was 80%. For the same molecule, the “Median PFS” value ([4]; STS (n = 10 evaluable)) was 2.6 mo, the “ORR* (PR)” value ([4]; STS (n = 10 evaluable)) was 0 n(%) and the “PFS rate at 6 mo” value ([4]; STS (n = 10 evaluable)) was 33.8%. For the same molecule, the “Lurbinectedin treatment: OS” value ([5]; resistant disease) was 12.6 months, the “Lurbinectedin treatment: DoR” value [5, 7] was 5.6 months and 5.3 months and 5.1 months and the “Lurbinectedin treatment: OS” value [5, 7] was 12.0 months and 4.9 months and 14.9 months and 6.9+ months. The “Lurbinectedin treatment: PFS” value [5, 7] was 6.0 months and 1.3 months and 8.3 months and 6.9 months and 6.3 months, the “Lurbinectedin treatment: DoR” value ([5]; sensitive disease) was 6.4 months and 2.8 months and the “Lurbinectedin treatment: OS” value ([5]; sensitive disease) was 9.3 months and 10.8 months and 2.3 months. For the same molecule, the “Lurbinectedin treatment: PFS” value ([5]; sensitive disease) was 7.6 months and 4.7 months and 1.3 months and the “Response to single-agent lurbinectedin in patients who had previously received immunotherapy” value ([5]; post-hoc, n=8) was “trend for a better response”.
